Test results published in article PMC6319706 (PLoS ONE, 2019).
Where two headings read alike, the source gives them in different places.

Key:
[1] = molecular target: human α7 nAChR (Homo sapiens, UniProt P36544); assay: cell-based
[2] = molecular target: T1, mouse adult α1β1εδ nAChR (Mus musculus, UniProt P02716+P04756+P09690+P20782); assay: cell-based; type: cell-based
[3] = molecular target: mouse α3β2γ2 GABAAR (Mus musculus, UniProt P22723+P26049+P63137); assay: cell-based; settings: for inhibition at 100 µM: read-out: inhibition of GABA-evoked currents
[4] = molecular target: T2, mouse 5-HT3AR (Mus musculus, UniProt P23979); assay: cell-based; type: cell-based
[5] = molecular target: α1β3γ2 GABAAR (Mus musculus, UniProt P62812+P63080); type: binding
[6] = molecular target: T1, mouse adult α1β1εδ nAChR; type: cell-based
[7] = molecular target: T2, mouse 5-HT3AR; settings: cited from earlier work
[8] = tested on: human 5-HT3AR; settings: cited from earlier work
[9] = tested on: end-plate muscle type nAChRs; settings: cited from earlier work
[10] = tested on: GABAAR; settings: cited from earlier work

| Compound | IC50 [1] | nH (Hill slope) [1] | IC50 [2] | nH (Hill slope) [2] | inhibition at 100 µM [3] | IC50 [4] | fold less active than d-TC [4] | nH (Hill slope) [4] | competition with Alexa Fluor 546 αCtx binding (in words) [5] | effect on maximal acetylcholine response (in words) [6] | fold less potent than BBIQA1 and d-TC [2] | IC50 [7] | IC50 [8] | fold higher affinity of orthosteric α/ε (or α/γ) site than orthosteric α/δ site [9] | inhibition of GABA-evoked currents [3] | inhibition of GABAAR (in words) [10] |
| --- | --- | --- | --- | --- | --- | --- | --- | --- | --- | --- | --- | --- | --- | --- | --- | --- |
| COc1cc2c(cc1O)[C@@H](Cc1ccc(O)c(Oc3cc4c(cc3OC)CCN[C@H]4Cc3ccc(O)cc3)c1)NCC2 [BBIQA1] | 1.7 µM | -0.83 ± 0.17 | 0.75 µM | -0.96 ± 0.16 | 40 to 50% | 0.119 µM | 5 fold | -1.06 ± 0.09 | comparable affinities | reduces the maximal acetylcholine response |  |  |  |  |  |  |
| COc1ccc2cc1Oc1cc3c(cc1O)CCN[C@H]3Cc1ccc(cc1)Oc1c(O)c(OC)cc3c1[C@@H](C2)[N+](C)(C)CC3 [BBIQA2] | 3.08 µM | -0.94 ± 0.29 | 1.75 µM | -1.04 ± 0.21 | 40 to 50% | 1.97 µM | 87 fold | -1.83 ± 0.01 | comparable affinities | reduces the maximal acetylcholine response | ~ 2 fold |  |  |  |  |  |
| COc1cc2c3cc1Oc1cc(ccc1O)C[C@@H]1c4c(cc(OC)c(O)c4Oc4ccc(cc4)C[C@@H]3N(C)CC2)CC[N+]1(C)C [d-TC, d-tubocurarine, reference compound] | 2.03 µM | -1.39 ± 0.21 | 0.81 µM | -1.87 ± 0.41 | 90% | 0.0226 µM |  | -1.19 ± 0.21 | comparable affinities | reduces the maximal acetylcholine response |  | 0.0114 to 0.013 µM | 1.8 µM | 100 fold | almost completely inhibited | inhibits GABAAR |
| α-bungarotoxin [αBgt, reference compound] |  |  |  |  |  |  |  |  |  | did not observe any reduction in the maximal amplitude |  |  |  |  |  |  |
